Patent US20260199255A1, “LIPID COMPOUNDS AND METHODS OF MAKING AND USE THEREOF” (Ohio State Innovation Foundation, priority 2022, published 2026)

Experiments:
Format in all cases: cell-based
Hep3B cell line = experiment: luciferase mRNA delivery in the Hep3B cell line (in vitro LNP screening); conditions: LNPs of bile acid derived lipid, DOPE, cholesterol and DMG-PEG; mRNA-encoding firefly luciferase; Hep3B cell line (FIG. 2)
Method: (§1) Lipid nanoparticles (LNPs) with synthesized bile acid derived lipids, DOPE, cholesterol and DMG-PEG were prepared and screened in various cell lines using mRNA-encoding firefly luciferase (FIGS. 2-4).

JAWS2 cell line = experiment: luciferase mRNA delivery in the JAWS2 cell line (in vitro LNP screening); conditions: LNPs of bile acid derived lipid, DOPE, cholesterol and DMG-PEG; mRNA-encoding firefly luciferase; JAWS2 cell line (FIG. 3)
Method: as §1

C2C12 cell line = experiment: luciferase mRNA delivery in the C2C12 cell line (in vitro LNP screening); conditions: LNPs of bile acid derived lipid, DOPE, cholesterol and DMG-PEG; mRNA-encoding firefly luciferase; C2C12 cell line (FIG. 4)
Method: as §1

In the case of CCCCCCCCCCCCN(CCCCCCCCCCCC)CCCCCCNC(=O)CC[C@@H](C)[C@H]1CC[C@H]2[C@@H]3CC[C@@H]4C[C@H](O)CC[C@]4(C)[C@H]3C[C@H](O)[C@]12C [BAL6], the mRNA delivery efficiency (Hep3B cell line) is reported as “more effective mRNA delivery efficiency than other LNPs”.

In the case of CCCCCCCCCCCCN(CCCCCCCCCCCC)CCN(CCCCCCCCCCCC)CCNC(=O)CC[C@@H](C)[C@H]1CC[C@H]2[C@@H]3CC[C@@H]4C[C@H](O)CC[C@]4(C)[C@H]3C[C@H](O)[C@]12C [BAL7], the mRNA delivery efficiency (JAWS2 cell line) is reported as “high mRNA delivery efficiency” and the mRNA delivery efficiency (C2C12 cell line) is reported as “high mRNA delivery efficiency”.

In the case of CCCCCCCCCCCCN(CCCCCCCCCCCC)CCN(CCCCCCCCCCCC)CCNC(=O)CC[C@@H](C)[C@H]1CC[C@H]2[C@@H]3[C@H](O)C[C@@H]4C[C@H](O)CC[C@]4(C)[C@H]3CC[C@]12C [BAL11], the mRNA delivery efficiency (JAWS2 cell line) is reported as “high mRNA delivery efficiency” and the mRNA delivery efficiency (C2C12 cell line) is reported as “high mRNA delivery efficiency”.
